Experimental data: US20100239635A1, “DRUG DELIVERY MEDICAL DEVICE” (MICELL TECHNOLOGIES, INC., priority 2009, published 2010)

How the values were obtained:
[1] = cited from earlier work
bladder cancer = details: optimized schedule: 40 mg/20 cc (compared with 20 mg/20 cc), overnight dehydration, complete bladder emptying, alkalinization with sodium bicarbonate; cited from earlier work
[2] = In vivo study of coating and drug transfer from a stent, porcine coronary artery model; parameters: species or system Yucatan pig; details: for amount of drug detected in the arterial tissue: stent as in Example 1
Protocol: Another sample of the coated stent was prepared for in vivo evaluation in a porcine coronary artery model using the Yucatan pig. Subjects were initially given 650 mg acetylsalicylic acid and 300 mg Plavix. Maintenance doses of 81 mg acetylsalicylic acid and 75 mg Plavix were administered. The target ACT (activated clotting time) for the procedure was about 250 seconds. Stent oversizing in relation to the artery was about 10-20%. The preparation of the sirolimus-coated stent was the same as described in Example 1 and used for the in vitro deployment into tubing, except that the device was sterilized using ETO prior to implantation into the animal.
The bulk concentration of drug was measured in the arterial tissue surrounding the implanted stent at 1, 3, 7, 14, and 28 days after implant, and provided a quantitative measure of the high efficiency of transfer of drug into the therapeutic site using devices and methods of the invention. The amount of drug that was detected in the arterial tissue was as follows: 1 day after implant, ˜6 μg; 3 days after implant, ˜16 μg; 7 days after implant, ˜30 μg; 14 days after implant, ˜30 μg; 28 days after implant, ˜13 μg. Peak tissue concentration of sirolimus of ˜30 μg at 14 days after implant was representative of approximately ⅙^th of the total drug that had been loaded on the stent. Note that some drug likely metabolized or diffused out of the arterial tissue into other areas of the body.

[3] = given intravesically in doses as high as 1 billion units; cited from earlier work
[4] = parameters: dose or concentration left out as unconfirmed; details: estradiol release, as its 3-acetate ester; cited from earlier work

CO[C@@]12[C@H](COC(N)=O)C3=C(C(=O)C(C)=C(N)C3=O)N1C[C@@H]1N[C@@H]12 [Mitomycin C, mitomycin C]
stability in acid urine [1]: inactivated | recurrence (bladder cancer): nearly cut in half

CO[C@H]1C[C@@H]2CC[C@@H](C)[C@@](O)(O2)C(=O)C(=O)N2CCCC[C@H]2C(=O)O[C@H]([C@H](C)C[C@@H]2CC[C@@H](O)[C@H](OC)C2)CC(=O)[C@H](C)/C=C(\C)[C@@H](O)[C@@H](OC)C(=O)[C@H](C)C[C@H](C)/C=C/C=C/C=C/1C [sirolimus]
amount of drug detected in the arterial tissue ([2]; 1 day after implant): ~6 µg | amount of drug detected in the arterial tissue ([2]; 3 days after implant): ~16 µg | amount of drug detected in the arterial tissue ([2]; 7 days after implant): ~30 µg | amount of drug detected in the arterial tissue ([2]; 14 days after implant): ~30 µg | amount of drug detected in the arterial tissue ([2]; 28 days after implant): ~13 µg | Peak tissue concentration of sirolimus ([2]; at 14 days after implant): ~30 µg | peak tissue amount as fraction of the total drug loaded on the stent ([2]; at 14 days after implant): approximately ⅙

Interferon Alpha 2b
dose-limiting side effects [3]: without dose-limiting side effects

C[C@]12CC[C@@H]3c4ccc(O)cc4CC[C@H]3[C@@H]1CC[C@@H]2O [estradiol]
circulating plasma concentration of the drug [4]: 300 pmol/L
